Holding throughout (assay type): biochemical
Test [1] concerns the target METTL1/WDR4 (Homo sapiens, UniProt Q9UBP6). Put plainly: METTL1 assay (3H-SAM flashplate scintillation). The protocol: Assays were performed in a 25 μl-volume in 384-well V-bottom polypropylene microplates (Greiner Bio-One, cat. No. 781280) at ambient temperature. Optimized 1× assay buffer was 20 mM HEPES pH 7.5, 50 mM KCl, 250 μM MgCl2, 1 mM DTT, 0.01% Tween, 0.01% BSG, 0.004 U/μl RNAseOUT (cat. No. 10777019, ThermoFisher Scientific, Waltham, Mass.). For compound screening METTL1/WDR4 (final concentration, f.c.=6.25 nM) was added using a Multidrop Combi (ThermoFisher Scientific, Waltham, Mass.) and preincubated for 5 min. Reactions were started by adding 3′ biotinylated RNA ([…]-biotin) (f.c.=25 nM) and 3H-SAM (f.c.=60 nM) substrates. Reactions proceeded for 20 minutes and were quenched with excess non-radioactive SAM (f.c.=15 μM). The reactions were then transferred to streptavidin-coated flashplates and incubated for 2 hours at 25° C. Following two washing cycles with 0.1% Tween-20, the plates were sealed and read on a TopCount (PerkinElmer, Waltham, Mass.) plate-based scintillation counter. For determination of kinetic parameters, reaction times were optimized so that measurements were taken during the initial velocity phase of the reaction.

Test [2] has as its target PRMT5-MEP50 (Homo sapiens, UniProt O14744). Briefly: PRMT5 assay (3H-SAM flashplate scintillation). The note with it: PRMT5-MEP50 2.5 nM, histone H4 peptide 100 nM, 3H-SAM 250 nM, 60 min. As to the method:
Assays were performed in a 25 μl-volume in 384-well V-bottom polypropylene microplates (Greiner Bio-One, cat. No. 781280) at ambient temperature. Optimized 1× assay buffer was 20 mM Tris-HCl pH 8.0, 1 mM DTT, […]. For compound screening PRMT5-MEP50 (final concentration, f.c.=2.5 nM) was added using a Multidrop Combi (ThermoFisher Scientific, Waltham, Mass.) and preincubated for 5 min. Reactions were started by adding 3′ biotinylated histone H4 peptide acetylated on serine 1 (Ac-[…]-Biotin) (f.c.=100 nM) and 3H-SAM (f.c.=250 nM) substrates. Reactions proceeded for 60 minutes and were quenched with excess non-radioactive SAM (f.c.=15 μM). The reactions were then transferred to streptavidin-coated flashplates and incubated for 2 hours at 25° C. Following two washing cycles with 0.1% Tween-20, the plates were sealed and read on a TopCount (PerkinElmer, Waltham, Mass.) plate-based scintillation counter. For determination of kinetic parameters, reaction times were optimized so that measurements were taken during the initial velocity phase of the reaction.

Test [3] deals with METTL3/METTL14 (Homo sapiens, UniProt Q86U44). Put plainly: METTL3-14 standard enzyme assay (3H-SAM flashplate scintillation). As to conditions: METTL3/METTL14 2.5 nM, RNA 100 nM, 3H-SAM 100 nM, 30 min. The protocol:
METTL3-14 Standard Enzyme Assay
Assays were performed in a 25 μl-volume in 384-well V-bottom polypropylene microplates (Greiner Bio-One, cat. No. 781280) at ambient temperature. Optimized 1× assay buffer was 20 mM HEPES pH 7.5, 50 mM KCl, 250 μM MgCl2, 1 mM DTT, 0.01% Tween, 0.01% BSG, 0.004 U/μl RNAseOUT (cat. No. 10777019, ThermoFisher Scientific, Waltham, Mass.). For compound screening METTL3/METTL14 (final concentration, f.c.=2.5 nM) was added using a Multidrop Combi (ThermoFisher Scientific, Waltham, Mass.) and preincubated for 5 min. Reactions were started by adding 3′ biotinylated RNA (UCUGGACUAAA-biotin) (f.c.=100 nM) and 3H-SAM (f.c.=100 nM) substrates. Reactions proceeded for 30 minutes and were quenched with excess non-radioactive SAM (f.c.=15 μM). The reactions were then transferred to streptavidin-coated flashplates and incubated for 2 hours at 25° C. Following two washing cycles with 0.1% Tween-20, the plates were sealed and read on a TopCount (PerkinElmer, Waltham, Mass.) plate-based scintillation counter. For determination of kinetic parameters, reaction times were optimized so that measurements were taken during the initial velocity phase of the reaction.

The mark [4] stands for this setting: METTL1/WDR4 6.25 nM, RNA 25 nM, 3H-SAM 60 nM, 20 min, read-out: METTL1 IC50.

Where two headings read alike, the source gives them in different places.

Chain of METTL3/METTL14 (Q86U44 whole entry, species assumed): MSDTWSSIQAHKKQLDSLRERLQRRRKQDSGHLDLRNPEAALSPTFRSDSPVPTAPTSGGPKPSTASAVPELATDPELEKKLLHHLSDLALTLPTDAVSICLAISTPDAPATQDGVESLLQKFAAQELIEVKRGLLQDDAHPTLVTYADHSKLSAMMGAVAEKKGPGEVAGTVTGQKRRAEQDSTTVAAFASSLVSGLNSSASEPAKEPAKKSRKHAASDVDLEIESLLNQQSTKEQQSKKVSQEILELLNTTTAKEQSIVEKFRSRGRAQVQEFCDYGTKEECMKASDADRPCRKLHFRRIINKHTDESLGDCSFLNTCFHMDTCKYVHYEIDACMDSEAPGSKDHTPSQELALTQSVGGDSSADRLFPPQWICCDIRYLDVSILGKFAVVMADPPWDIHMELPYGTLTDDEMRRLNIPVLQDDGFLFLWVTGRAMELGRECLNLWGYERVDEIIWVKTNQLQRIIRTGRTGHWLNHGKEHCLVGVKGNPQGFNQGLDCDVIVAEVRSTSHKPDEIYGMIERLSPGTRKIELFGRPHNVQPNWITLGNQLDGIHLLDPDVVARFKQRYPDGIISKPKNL
Chain of METTL3/METTL14 (Q9HCE5 whole entry partner, species assumed): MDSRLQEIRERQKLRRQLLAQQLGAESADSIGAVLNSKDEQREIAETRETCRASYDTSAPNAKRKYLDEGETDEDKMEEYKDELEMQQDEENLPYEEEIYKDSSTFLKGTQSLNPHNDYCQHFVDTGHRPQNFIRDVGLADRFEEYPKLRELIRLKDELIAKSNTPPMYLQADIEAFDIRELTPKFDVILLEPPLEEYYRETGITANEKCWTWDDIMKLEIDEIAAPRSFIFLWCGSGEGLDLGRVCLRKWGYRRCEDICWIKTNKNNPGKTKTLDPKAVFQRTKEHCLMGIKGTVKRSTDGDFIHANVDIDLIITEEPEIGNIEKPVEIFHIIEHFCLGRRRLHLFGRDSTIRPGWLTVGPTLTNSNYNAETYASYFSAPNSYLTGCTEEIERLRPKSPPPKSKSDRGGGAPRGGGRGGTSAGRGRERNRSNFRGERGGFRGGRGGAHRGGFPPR
Chain of PRMT5-MEP50 (O14744 whole entry): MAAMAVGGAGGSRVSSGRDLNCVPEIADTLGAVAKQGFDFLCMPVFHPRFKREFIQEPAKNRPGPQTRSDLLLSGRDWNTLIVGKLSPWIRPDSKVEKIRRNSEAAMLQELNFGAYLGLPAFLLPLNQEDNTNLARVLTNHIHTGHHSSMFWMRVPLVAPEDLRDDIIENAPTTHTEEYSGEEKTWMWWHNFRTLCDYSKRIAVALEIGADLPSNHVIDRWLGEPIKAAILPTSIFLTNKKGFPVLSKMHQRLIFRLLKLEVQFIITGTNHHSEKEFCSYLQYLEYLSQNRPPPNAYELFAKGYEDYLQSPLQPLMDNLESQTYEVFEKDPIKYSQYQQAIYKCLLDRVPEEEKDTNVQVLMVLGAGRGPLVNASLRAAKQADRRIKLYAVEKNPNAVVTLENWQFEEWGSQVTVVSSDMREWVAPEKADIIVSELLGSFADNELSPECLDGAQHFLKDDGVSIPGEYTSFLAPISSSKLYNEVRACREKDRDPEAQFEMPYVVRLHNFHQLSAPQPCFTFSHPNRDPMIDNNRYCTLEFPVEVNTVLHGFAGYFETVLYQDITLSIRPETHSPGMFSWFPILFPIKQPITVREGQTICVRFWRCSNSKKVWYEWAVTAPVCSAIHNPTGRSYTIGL
Chain of PRMT5-MEP50 (Q9BQA1 whole entry partner): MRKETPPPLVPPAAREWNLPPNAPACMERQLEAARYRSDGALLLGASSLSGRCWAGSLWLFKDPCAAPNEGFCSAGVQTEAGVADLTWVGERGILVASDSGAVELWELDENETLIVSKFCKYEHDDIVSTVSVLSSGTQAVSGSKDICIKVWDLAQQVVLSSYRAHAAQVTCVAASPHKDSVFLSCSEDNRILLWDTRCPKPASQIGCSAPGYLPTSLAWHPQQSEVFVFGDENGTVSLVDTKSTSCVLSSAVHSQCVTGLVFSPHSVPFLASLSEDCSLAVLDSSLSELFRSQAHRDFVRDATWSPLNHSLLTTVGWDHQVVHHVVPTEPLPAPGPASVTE
Chain of METTL1/WDR4 (Q9UBP6 whole entry, species assumed): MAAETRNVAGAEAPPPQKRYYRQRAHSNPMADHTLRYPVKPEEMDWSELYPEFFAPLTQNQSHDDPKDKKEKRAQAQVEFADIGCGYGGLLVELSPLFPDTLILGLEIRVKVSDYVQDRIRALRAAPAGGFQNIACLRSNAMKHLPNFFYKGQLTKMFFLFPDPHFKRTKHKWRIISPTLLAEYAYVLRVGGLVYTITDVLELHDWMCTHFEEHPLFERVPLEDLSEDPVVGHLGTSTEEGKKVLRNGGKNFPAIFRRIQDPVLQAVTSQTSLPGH
Chain of METTL1/WDR4 (P57081 whole entry partner, species assumed): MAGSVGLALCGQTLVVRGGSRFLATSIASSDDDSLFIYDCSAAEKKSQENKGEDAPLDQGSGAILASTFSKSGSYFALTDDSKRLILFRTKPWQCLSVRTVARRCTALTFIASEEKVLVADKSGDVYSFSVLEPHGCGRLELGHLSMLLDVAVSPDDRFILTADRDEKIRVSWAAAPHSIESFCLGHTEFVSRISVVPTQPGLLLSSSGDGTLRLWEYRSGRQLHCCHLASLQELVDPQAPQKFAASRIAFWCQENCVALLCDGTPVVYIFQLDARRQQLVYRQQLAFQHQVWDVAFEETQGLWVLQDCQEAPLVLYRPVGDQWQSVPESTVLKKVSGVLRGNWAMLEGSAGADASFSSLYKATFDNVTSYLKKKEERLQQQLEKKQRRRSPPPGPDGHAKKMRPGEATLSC

In the case of `CNc1ccc2ccc(OCc3cc(-n4ccc5c(N)ncnc54)n[nH]3)cc2n1` [Compound I-2], the concentration for half-maximal inhibition (IC50) in test [1] and in test [2] was > 1000 nM throughout.
Consider `CNc1ccc2ccc(OCc3cncc(-n4cc(C5CCC(F)(F)CC5)c5c(N)ncnc54)c3)cc2n1` [Compound I-3], for which the IC50 is 10 to 100 nM in test [3], > 1000 nM in test [1] (setting [4]) and > 1000 nM in test [2].
In the case of `CNc1ccc2ccc(OC(C)c3cncc(-n4ccc5c(N)ncnc54)c3)cc2n1` (centres unmarked) [Compound I-4], the IC50 in test [1] (setting [4]) and in test [2] was > 1000 nM throughout.
Turning to `CNc1ccc2cc(F)c(OCc3cncc(-n4cc(C5CCCC5)c5c(N)ncnc54)c3)cc2n1` [Compound I-5], the IC50 in test [1] (setting [4]) and in test [2] was > 1000 nM throughout.
In the case of `CCc1nc(N)c2ccn(-c3cncc(COc4ccc5ccc(NC)nc5c4)c3)c2n1` [Compound I-8], the IC50 in test [3] is < 10 nM; in test [1] (setting [4]), > 1000 nM; in test [2], > 1000 nM.
`CNc1ccc2ccc(OCc3cc(-n4cc(Cl)c5c(N)ncnc54)cnc3NC)cc2n1` [Compound I-13]: the values for the IC50 in test [3], in test [1] (setting [4]) and in test [2] were 10 to 100 nM, > 1000 nM and > 1000 nM, respectively.
For the compound `CNc1ccc2ccc(OCc3nc(-n4ccc5c(N)ncnc54)cs3)cc2n1` [Compound I-19], the IC50 in test [3] was 10 to 100 nM; in test [1], > 1000 nM; in test [2], > 1000 nM.
As to `CNc1ccc2ccc(OCc3cc(C(N)=O)cc(-n4cc(Cl)c5c(N)ncnc54)c3)cc2n1` [Compound I-21], the figures for the IC50 in test [3], in test [1] (setting [4]) and in test [2] were 100 to 1000 nM, > 1000 nM and > 1000 nM, respectively.
Turning to `CCc1cc(N2CCC2)nc2cc(F)cc(OCc3cncc(-n4cc(C5CCCO5)c5c(N)ncnc54)c3)c12` (centres unmarked) [Compound I-198], the IC50 in test [3] and in test [2] was > 1000 nM in each case.
Take `CCc1cc(N2CCC2)nc2cc(OCc3cncc(-n4cc(C5CCCO5)c5c(N)ncnc54)c3)cc(F)c12` (centres unmarked) [Compound I-199]: the IC50 in test [3] and in test [2] was > 1000 nM in each case.
As to `Cn1ccc(-c2cn(-c3cncc(COc4ccc(CN5CCC(CO)CC5)c(N)c4)c3)c3ncnc(N)c23)n1` [Compound I-200], the IC50 is 100 to 1000 nM in test [3] and > 1000 nM in test [2].
As for `Cn1ccc(-c2cn(-c3cncc(COc4ccc5ccc(N6CC7(COC7)C6)nc5c4)c3)c3ncnc(N)c23)n1` [Compound I-201], the IC50 in test [3] is 100 to 1000 nM; in test [2], > 1000 nM.
Consider `CC(=O)NC1CN(c2ccc3ccc(OCc4cncc(-n5cc(-c6ccn(C)n6)c6c(N)ncnc65)c4)cc3n2)C1` [Compound I-202], for which the IC50 is 10 to 100 nM in test [3] and > 1000 nM in test [2].
With `Cn1ccc(-c2cn(-c3cncc(COc4ccc5ccc(N6CC7(CC7)C6)nc5c4)c3)c3ncnc(N)c23)n1` [Compound I-203], the figures for the IC50 in test [3] and in test [2] were 10 to 100 nM and > 1000 nM, respectively.
For `CN1CCN(c2ccc3ccc(OCc4cncc(-n5cc(-c6ccn(C)n6)c6c(N)ncnc65)c4)cc3n2)CC1` [Compound I-204] the same measures were 100 to 1000 nM and > 1000 nM.
`Nc1ncnc2c1c(C1CCCO1)cn2-c1cncc(COc2cnc3ccc(N4CCC4)nc3c2)c1` (centres unmarked) [Compound I-207]: the IC50 in test [3] and in test [2] was > 1000 nM throughout.
Consider `Cn1ccc(-c2cn(-c3cncc(COc4cc(F)c5ccc(N6CCC6)nc5c4)c3)c3ncnc(N)c23)n1` [Compound I-208], for which the IC50 is 10 to 100 nM in test [3] and > 1000 nM in test [2].
`CN(CCO)C(=O)c1ccc(OCc2cncc(-n3cc(-c4ccn(C)n4)c4c(N)ncnc43)c2)cc1N` [Compound I-209]: the IC50 in test [3] and in test [2] was > 1000 nM in each case.
Turning to `Cn1ccc(-c2cn(-c3cncc(COc4ccc(CN5CCOCC5)c(N)c4)c3)c3ncnc(N)c23)n1` [Compound I-210], the IC50 is 100 to 1000 nM in test [3] and > 1000 nM in test [2].
On to `Cn1ccc(-c2cn(-c3cncc(COc4ccc(-c5ncco5)c(N)c4)c3)c3ncnc(N)c23)n1` [Compound I-211], for which the IC50 in test [3] and in test [2] was > 1000 nM throughout.
In the case of `Cn1ccc(-c2cn(-c3cncc(COc4ccc5ccc(N6CCOCC6=O)nc5c4)c3)c3ncnc(N)c23)n1` [Compound I-214], the IC50 in test [3] and in test [2] was > 1000 nM each time.
In the case of `Nc1cc(OCc2cncc(-n3ccc4c(N)ncnc43)c2)ccc1C(=O)N1CCNCC1` [Compound I-215], the half-maximal inhibitory concentration (IC50) in test [3] and in test [2] was > 1000 nM in each case.
`CN(C)CCNC(=O)c1ccc(OCc2cncc(-n3ccc4c(N)ncnc43)c2)cc1N` [Compound I-216]: the IC50 in test [3] and in test [2] was > 1000 nM throughout.
For `CN(C)CCNC(=O)c1ccc(OCc2cncc(-n3cc(Br)c4c(N)ncnc43)c2)cc1N` [Compound I-218], the IC50 in test [3] and in test [2] was > 1000 nM throughout.
For `Cn1ccc(-c2cn(-c3cncc(CSc4ccc5ccc(N6CCC6)nc5c4)c3)c3ncnc(N)c23)n1` [Compound I-219, 7-[5-({[2-(azetidin-1-yl)quinolin-7-yl]sulfanyl}methyl)pyridin-3-yl]-5-(1-methyl-1H-pyrazol-3-yl)-7H-pyrrolo[2,3-d]pyrimidin-4-amine], the IC50 in test [3] is < 10 nM; in test [2], > 1000 nM.
Consider `Cn1ccc(-c2cn(-c3cncc(CS(=O)(=O)c4ccc5ccc(N6CCC6)nc5c4)c3)c3ncnc(N)c23)n1` [Compound I-220, 7-[5-({[2-(azetidin-1-yl)quinolin-7-yl]sulfonyl}methyl)pyridin-3-yl]-5-(1-methyl-1H-pyrazol-3-yl)-7H-pyrrolo[2,3-d]pyrimidin-4-amine], for which the IC50 in test [3] and in test [2] was > 1000 nM each time.
Regarding `Cn1ccc(-c2cn(-c3cncc(C[S+]([O-])c4ccc5ccc(N6CCC6)nc5c4)c3)c3ncnc(N)c23)n1` (centres unmarked) [Compound I-221, 7-[5-({[2-(azetidin-1-yl)quinolin-7-yl]sulfinyl}methyl)pyridin-3-yl]-5-(1-methyl-1H-pyrazol-3-yl)-7H-pyrrolo[2,3-d]pyrimidin-4-amine], the IC50 in test [3] is > 1000 nM; in test [2] it was 100 to 1000 nM.
In the case of `Cn1ccc(-c2cn(-c3cncc(COC(=O)Nc4cccc(Br)n4)c3)c3ncnc(N)c23)n1` [Compound I-223], the IC50 in test [3] and in test [2] was > 1000 nM each time.
Take `Cn1ccc(-c2cn(-c3cncc(COC(=O)Nc4cccc(N5CCC5)n4)c3)c3ncnc(N)c23)n1` [Compound I-224, {5-[4-amino-5-(1-methyl-1H-pyrazol-3-yl)-7H-pyrrolo[2,3-d]pyrimidin-7-yl]pyridin-3-yl}methyl N-[6-(azetidin-1-yl)pyridin-2-yl]carbamate]: the IC50 in test [3] and in test [2] was > 1000 nM in each case.
`Cn1ccc(-c2cn(-c3cncc(CNC(=O)Nc4cccc(N5CCC5)n4)c3)c3ncnc(N)c23)n1` [Compound I-225, 1-({5-[4-amino-5-(1-methyl-1H-pyrazol-3-yl)-7H-pyrrolo[2,3-d]pyrimidin-7-yl]pyridin-3-yl}methyl)-3-[6-(azetidin-1-yl)pyridin-2-yl]urea]: the IC50 in test [3] and in test [2] was > 1000 nM throughout.
